In patent US10882835B2 (Imago Biosciences, Inc., priority 2013, dated 2021):

What was measured:
KDM1A (LSD1) = KDM1A (LSD1) (Homo sapiens (Human), UniProt O60341); test: 10-dose IC50 fluorescence coupling enzyme assay, LSD1 demethylase activity on histone H3(1-21)K4me2 peptide (HRP/Amplex Red); type: biochemical; details: 10 μM histone H3(1-21)K4me2 peptide substrate
[1] = Metabolic stability in murine liver microsomes; type: in vitro ADME; details: mouse liver microsomes, 2 μM compound, NADPH
Protocol: The metabolic stability of compounds disclosed herein in pooled human liver microsomes (HLM) and pooled male mouse liver microsomes (MMLM) was determined according to the following protocol, in which the concentrations of compounds in reaction systems were evaluated by LC/MS/MS for estimating the stability in liver microsomes.
Pooled human liver microsomes (HMMCPL; PL050B) and pooled male mouse liver microsomes (MSMCPL; MS033) were purchased from CellzDirect (Invitrogen). Microsomes were stored at −80 C prior to use.
A master solution was prepared containing microsome (stock concentration 5 mg/mL, volume 50 μL, final concentration 0.5 mg/mL), MgCl2 solution (stock concentration 50 mM, volume 50 μL, final concentration 5 mM), phosphate buffer (stock concentration 200 mM, volume 250 μL, final concentration 100 mM), and water (volume […]. Five μL of 200 μM test compounds or control solution (control compound: verapamil) was then added. The final concentration of test compounds or verapamil in the reaction system was 2 μM. The mixture was pre-warmed at 37 C for 5 min.
The reaction was started with the addition of 50 μL of 10 mM NADPH solution at the final concentration of 1 mM and carried out at 37 C. 50 μL of ultra-pure H2O was used instead of NADPH solution in the negative control.
Aliquots of 50 μL were taken from the reaction solution at 0 and 30 min. The reaction was stopped by the addition of 3 volumes of cold methanol with IS (200 nM imipramine, 200 nM labetalol and 2 μM ketoprofen) at the designated time points. Samples were centrifuged at 16,000 g for 10 minutes to precipitate protein. Aliquot of 100 μL of the supernatant was diluted by 100 μL ultra-pure H2O, and the mixture was used for LC/MS/MS analysis. All experiments were performed in duplicate.
Samples were analyzed using liquid chromatography-mass spectrometry. The LC system comprised a Shimadzu liquid chromatograph separation system equipped with degasser DGU-20A3, solvent delivery unit LC-20AD, system controller CBM-20A, column oven CTO-10ASVP and CTC Analytics HTC PAL System. Chromatographic conditions included a Phenomenex column, 5.0μ C18 (2.0×50 mm); a mobile phase of 0.1% formic acid in acetonitrile and 0.1% formic acid in water; an elution rate of 500 μL/min; column temperature 25 C; injection volume 10 μL. Mass spectrometric analysis was performed using an API 4000 instrument from AB Inc. (Canada) with an ESI interface. The data acquisition and control system were created using Analyst 1.5.1 software from ABI Inc. A turbo spray ion source and electrospray ionization were employed in a multiple reaction monitoring (MRM) scan. Additional parameters included: collision gas, 6 L/min; curtain gas, 30 L/min; nebulize gas, 50 L/min; auxiliary gas, 50 L/min; temperature, 500 C; ionspray voltage, +5500 v (positive MRM). Quadripoles Q1 and Q3 were set to 456.2 and 200.2, respectively; declustering potential (DP), entrance potential (EP), and collision cell entrance potential (CE) were set to 120, 10, and 55 v, respectively; collision cell exit potential (CXP) was 12 v.
All calculations were carried out using Microsoft Excel. Peak areas were determined from extracted ion chromatograms. The control compounds were included in the assay. Any value of the compounds that was not within the specified limits was rejected and the experiment was repeated. The reaction system without the cofactors was used to exclude the misleading factor that resulted from instability of chemical itself.

Row | IC50 (KDM1A (LSD1)) [nM] | % at 30 min, MLM [1] | % at 30 min, MLM ([1]; numeric values of Table 2) [%] | SMILES
1 | < 1000 | − (− is <20%) | – | O=C(N[C@@H](CCCCN[C@@H]1C[C@H]1c1ccc(F)cc1)C(=O)N1CCCCC1)c1ccc(C(F)(F)F)cc1 [Example 14, N—((S)-6-(((1R,2S)-2-(4-fluorophenyl)cyclopropyl)amino)-1-oxo-1-(piperidin-1-yl)hexan-2-yl)-4-(trifluoromethyl)benzamide]
2 | < 1000 | − (− is <20%) | 2.3 | O=C(N[C@@H](CS(=O)(=O)CCN[C@@H]1C[C@H]1c1ccc(F)cc1)C(=O)N1CCOCC1)c1ccc(F)cc1 [Example 19, 4-fluoro-N—((R)-3-((2-(((1R,2S)-2-(4-fluorophenyl)cyclopropyl)amino)ethyl)sulfonyl)-1-morpholino-1-oxopropan-2-yl)benzamide]
3 | > 1000 | + (+ is ≥20%) | 65 | C[C@@]1(NCCCC[C@H](NC(=O)c2ccccc2)C(=O)N2CCN(S(C)(=O)=O)CC2)C[C@H]1c1ccc(F)cc1 [Example 8, N—((S)-6-(((1R,2S)-2-(4-fluorophenyl)-1-methylcyclopropyl)amino)-1-(4-(methylsulfonyl)piperazin-1-yl)-1-oxohexan-2-yl)benzamide]

The next lines start with the compound.

Row | SMILES | IC50 (KDM1A (LSD1)) [nM] | % at 30 min, MLM [1] | % at 30 min, MLM ([1]; numeric values of Table 2) [%]
4 | O=C(N[C@@H](CCCCN[C@@H]1C[C@H]1c1ccc(F)cc1)C(=O)N1CCCCC1)c1ccccn1 [Example 7, N-[(2S)-6-[[(1R,2S)-2-(4-fluorophenyl)cyclopropyl]amino]-1-oxo-1-(piperidin-1-yl)hexan-2-yl]pyridine-2-carboxamide] | < 1000 | − (− is <20%) | –
5 | O=C(N[C@@H](CCCCN[C@@H]1C[C@H]1c1ccccc1)C(=O)N1CCCCC1)c1ccccc1 [Example 2, N—((S)-1-oxo-6-(((1R,2S)-2-phenylcyclopropyl)amino)-1-(piperidin-1-yl)hexan-2-yl)benzamide] | < 1000 | − (− is <20%) | –
